ChEMBL document CHEMBL1201862, “PubChem BioAssay data set” (2004)
Active and inactive are the calls of the source.

What was measured:
Albumin = Albumin (Bos taurus, UniProt P02769); test: Counterscreen for inhibitors of T-cell receptor (TCR)-CD3 interaction: Fluorescence-based biochemical high throughput dose response assay to identify inhibitors of T-cell receptor (TCR)-CD3 interaction using a TAMRA-labeled BSA probe.; format: functional
INS1 = test: beta cell apoptosis inhibitors, cytokine rescue, dose response, luminescence, retest (AID 449756); format: functional, cell-based; details: Rattus norvegicus;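 further: cell death triggered by IL-1 beta plus TNF-alpha plus IFN-gamma mixture; protective hits raise ATP signal compared with cytokine alone wells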
[1] = cytotoxicity toward NIH3T3 fibroblasts, dose response, counter-screen, cell-based, ATP luminescence, mouse fibroblasts (AID 2010); format: functional;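 further: cells exposed to compound for about 90 hours before reading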
Streptococcus = test: Group A Streptococcus viability loss, dose response, counter-screen for streptokinase expression inhibitor project, luminescence, BacTiterGlo (AID 1915); format: functional, organism-based;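 further: potency for reduction of bacterial viability or growth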
Streptokinase A = target: T1, Streptokinase A (Streptococcus pyogenes serotype M1, UniProt P10520); test: S. pyogenes streptokinase expression inhibitors, potency, dose response, plasminogen activation absorbance, OD405 (AID 1914); format: functional, Streptococcus pyogenes M1 GAS;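 further: secreted streptokinase activity via plasminogen activation per viability signal from cell pellet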
T1 sequence (P10520 whole entry): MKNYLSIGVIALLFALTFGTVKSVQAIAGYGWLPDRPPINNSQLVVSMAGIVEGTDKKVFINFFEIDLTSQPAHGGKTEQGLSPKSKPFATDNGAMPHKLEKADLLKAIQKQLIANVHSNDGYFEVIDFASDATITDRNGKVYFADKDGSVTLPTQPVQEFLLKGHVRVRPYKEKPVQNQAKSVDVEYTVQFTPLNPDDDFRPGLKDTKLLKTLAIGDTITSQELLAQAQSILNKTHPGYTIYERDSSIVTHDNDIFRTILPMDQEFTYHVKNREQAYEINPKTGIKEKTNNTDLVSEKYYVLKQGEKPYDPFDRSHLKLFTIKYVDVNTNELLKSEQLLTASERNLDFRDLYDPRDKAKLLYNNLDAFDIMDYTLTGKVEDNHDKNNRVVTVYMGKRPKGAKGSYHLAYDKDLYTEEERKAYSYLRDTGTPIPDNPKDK

[2] = inhibitors of intracellular T. cruzi replication, confirmation, NIH3T3 host cells, beta-gal luminescence (AID 2044); format: functional, cell-based;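 further: intracellular parasites grown in NIH/3T3 mouse fibroblasts as host cells; luminescent beta-galactosidase reporter signal from transgenic T. cruzi replicating inside host cells; inhibitors lower the luminescence signal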
[3] = test system: Streptococcus sp. 'group A'; test: growth inhibition of control SK(-) GAS strain, dose response, counter-screen for streptokinase expression inhibitor project, luminescence, kanamycin, BacTiterGlo, confirmation (AID 1900); format: functional, organism-based
[4] = HeLa cell cytotoxicity, dose response, cytotoxicity control, 24 h, plate reader, dry powder (AID 686928); format: functional, cell-based
Paired box protein Pax-8 = Paired box protein Pax-8 (Homo sapiens, UniProt Q06710); test: inhibitors of PAX8-driven TPO luciferase reporter, dose response, RMG-I cells, cherry-pick (AID 687027); format: functional, cell-based;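 further: luciferase reporter driven by Pax8 target thyroperoxidase promoter measured by SteadyGlo luminescence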
Paired box protein Pax-8, sequence (Q06710 whole entry): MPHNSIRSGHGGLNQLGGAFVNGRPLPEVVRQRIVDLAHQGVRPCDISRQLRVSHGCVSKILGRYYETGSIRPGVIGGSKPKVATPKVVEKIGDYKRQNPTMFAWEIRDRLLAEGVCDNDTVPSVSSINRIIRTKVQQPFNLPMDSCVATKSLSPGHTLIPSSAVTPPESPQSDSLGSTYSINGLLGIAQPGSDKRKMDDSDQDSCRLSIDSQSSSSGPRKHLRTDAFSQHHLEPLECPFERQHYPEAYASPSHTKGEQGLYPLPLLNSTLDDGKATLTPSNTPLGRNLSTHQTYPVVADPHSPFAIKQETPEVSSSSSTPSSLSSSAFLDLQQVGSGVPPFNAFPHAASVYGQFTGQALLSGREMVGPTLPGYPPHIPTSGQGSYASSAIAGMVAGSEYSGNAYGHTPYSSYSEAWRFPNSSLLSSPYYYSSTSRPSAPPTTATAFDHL

[5] = non-specific cell cytotoxicity, dose response, cytotoxicity control for PAX8 inhibitor project, plate reader, dry powder samples (AID 743021); format: functional, cell-based
Protein Tat = target: T2, Protein Tat (Human immunodeficiency virus type 1 group M subtype B (isolate HXB2)(HIV-1), UniProt P04608); format: functional;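 further: tat binding to TAR RNA read out by fluorescence polarization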
T2 sequence (P04608 whole entry): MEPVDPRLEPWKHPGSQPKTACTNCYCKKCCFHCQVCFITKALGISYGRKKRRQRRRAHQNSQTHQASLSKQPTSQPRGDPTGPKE

[6] = Fluorescence-based cell-based high throughput dose response assay for inhibitors of the interaction of nucleotide-binding oligomerization domain containing 2 (NOD2) and the receptor-interacting serine-threonine kinase 2 (RIPK2).; format: functional; details: Homo sapiens
[7] = target: Heat shock protein HSP 90-alpha (Homo sapiens, UniProt P07900); format: functional, organism-based
Vero = Vero cell cytotoxicity, cytotoxicity control for flavivirus capping enzyme inhibitors (AID 588742); format: functional; details: Chlorocebus sabaeus
[8] = THP-1 cell cytotoxicity, dose response, cytotoxicity control for Vif-APOBEC3G degradation inhibitor project, THP-1 cells (AID 1117359); format: functional; details: Human immunodeficiency virus 1, THP-1
Beta-galactosidase = Beta-galactosidase (Escherichia coli, UniProt Q8VNN2); test: beta-galactosidase enzyme inhibitors and activators, dose response, artefact control for CCR6 antagonist project, biochemical, E. coli enzyme, set 3 (AID 504712); format: functional
Beta-galactosidase, sequence (Q8VNN2 whole entry): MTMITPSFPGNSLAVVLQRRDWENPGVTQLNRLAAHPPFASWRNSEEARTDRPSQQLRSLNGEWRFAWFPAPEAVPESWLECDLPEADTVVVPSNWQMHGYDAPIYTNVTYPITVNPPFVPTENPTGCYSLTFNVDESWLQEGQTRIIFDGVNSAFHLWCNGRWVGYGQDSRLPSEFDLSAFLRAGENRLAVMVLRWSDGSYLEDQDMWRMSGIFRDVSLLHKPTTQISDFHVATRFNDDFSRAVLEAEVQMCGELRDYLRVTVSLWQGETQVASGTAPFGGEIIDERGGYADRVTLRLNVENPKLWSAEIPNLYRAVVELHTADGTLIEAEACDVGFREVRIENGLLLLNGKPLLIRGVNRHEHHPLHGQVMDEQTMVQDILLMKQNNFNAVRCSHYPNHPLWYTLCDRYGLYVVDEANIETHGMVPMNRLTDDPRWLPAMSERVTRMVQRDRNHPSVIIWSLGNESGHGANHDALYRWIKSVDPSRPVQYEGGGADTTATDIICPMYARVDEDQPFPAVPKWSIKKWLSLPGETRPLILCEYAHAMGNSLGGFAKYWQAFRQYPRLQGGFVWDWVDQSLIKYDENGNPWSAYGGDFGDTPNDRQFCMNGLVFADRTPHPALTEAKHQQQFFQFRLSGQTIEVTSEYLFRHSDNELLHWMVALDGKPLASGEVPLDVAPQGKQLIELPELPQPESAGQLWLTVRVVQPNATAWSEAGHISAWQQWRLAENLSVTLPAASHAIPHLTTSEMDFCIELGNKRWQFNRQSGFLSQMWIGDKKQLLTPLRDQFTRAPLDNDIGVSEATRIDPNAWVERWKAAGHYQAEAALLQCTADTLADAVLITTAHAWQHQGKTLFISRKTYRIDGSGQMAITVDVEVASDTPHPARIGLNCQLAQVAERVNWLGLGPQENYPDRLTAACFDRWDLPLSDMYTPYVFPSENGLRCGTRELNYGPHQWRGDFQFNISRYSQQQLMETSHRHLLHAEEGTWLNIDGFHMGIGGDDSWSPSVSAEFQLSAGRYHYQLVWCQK

[9] = target: Glucose-6-phosphate 1-dehydrogenase (Homo sapiens, UniProt P11413); test: human G6PD enzyme inhibitors, dose response, selectivity assay for P. falciparum G6PD inhibitor project, biochemical, fluorescence (AID 504792); format: functional
Glucose-6-phosphate 1-dehydrogenase, sequence (P11413 whole entry): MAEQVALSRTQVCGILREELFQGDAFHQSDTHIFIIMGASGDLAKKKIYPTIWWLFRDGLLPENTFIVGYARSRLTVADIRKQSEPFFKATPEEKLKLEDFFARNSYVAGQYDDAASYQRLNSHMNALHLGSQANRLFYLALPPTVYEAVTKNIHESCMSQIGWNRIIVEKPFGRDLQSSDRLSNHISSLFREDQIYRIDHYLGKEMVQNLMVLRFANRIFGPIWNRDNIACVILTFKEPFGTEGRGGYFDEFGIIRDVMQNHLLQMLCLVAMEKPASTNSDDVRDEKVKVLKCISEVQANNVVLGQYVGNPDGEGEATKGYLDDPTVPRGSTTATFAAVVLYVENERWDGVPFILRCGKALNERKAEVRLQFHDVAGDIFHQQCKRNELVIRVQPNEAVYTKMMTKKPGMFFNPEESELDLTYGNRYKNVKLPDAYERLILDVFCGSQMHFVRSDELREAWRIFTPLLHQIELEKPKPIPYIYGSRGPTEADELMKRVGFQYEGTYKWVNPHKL

Beta Lactamase [10] = target: T3, Beta Lactamase (Pseudomonas aeruginosa, UniProt Q932Y6); test: beta-lactamase reporter inhibitor potency, dose response, artefact control for NOD2-RIPK2 interaction inhibitor project, BLA reporter cells, FRET fluorescence (AID 651552); format: functional, cell-based
T3 sequence (Q932Y6 whole entry): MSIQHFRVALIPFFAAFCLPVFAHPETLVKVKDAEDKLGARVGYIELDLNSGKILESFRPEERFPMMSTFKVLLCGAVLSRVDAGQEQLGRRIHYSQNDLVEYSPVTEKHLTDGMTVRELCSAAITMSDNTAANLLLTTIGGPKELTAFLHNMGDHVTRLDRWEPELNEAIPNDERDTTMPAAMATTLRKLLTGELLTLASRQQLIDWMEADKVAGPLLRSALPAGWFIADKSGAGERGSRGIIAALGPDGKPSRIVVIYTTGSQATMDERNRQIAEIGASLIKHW

Genome polyprotein = Genome polyprotein (dengue virus type 2, UniProt P29990); test: Dengue-2 NS5 methyltransferase inhibitors, primary screen, biochemical, confirmation dose response (AID 588689); format: functional
Genome polyprotein, sequence (P29990 2492-3391 limits assumed): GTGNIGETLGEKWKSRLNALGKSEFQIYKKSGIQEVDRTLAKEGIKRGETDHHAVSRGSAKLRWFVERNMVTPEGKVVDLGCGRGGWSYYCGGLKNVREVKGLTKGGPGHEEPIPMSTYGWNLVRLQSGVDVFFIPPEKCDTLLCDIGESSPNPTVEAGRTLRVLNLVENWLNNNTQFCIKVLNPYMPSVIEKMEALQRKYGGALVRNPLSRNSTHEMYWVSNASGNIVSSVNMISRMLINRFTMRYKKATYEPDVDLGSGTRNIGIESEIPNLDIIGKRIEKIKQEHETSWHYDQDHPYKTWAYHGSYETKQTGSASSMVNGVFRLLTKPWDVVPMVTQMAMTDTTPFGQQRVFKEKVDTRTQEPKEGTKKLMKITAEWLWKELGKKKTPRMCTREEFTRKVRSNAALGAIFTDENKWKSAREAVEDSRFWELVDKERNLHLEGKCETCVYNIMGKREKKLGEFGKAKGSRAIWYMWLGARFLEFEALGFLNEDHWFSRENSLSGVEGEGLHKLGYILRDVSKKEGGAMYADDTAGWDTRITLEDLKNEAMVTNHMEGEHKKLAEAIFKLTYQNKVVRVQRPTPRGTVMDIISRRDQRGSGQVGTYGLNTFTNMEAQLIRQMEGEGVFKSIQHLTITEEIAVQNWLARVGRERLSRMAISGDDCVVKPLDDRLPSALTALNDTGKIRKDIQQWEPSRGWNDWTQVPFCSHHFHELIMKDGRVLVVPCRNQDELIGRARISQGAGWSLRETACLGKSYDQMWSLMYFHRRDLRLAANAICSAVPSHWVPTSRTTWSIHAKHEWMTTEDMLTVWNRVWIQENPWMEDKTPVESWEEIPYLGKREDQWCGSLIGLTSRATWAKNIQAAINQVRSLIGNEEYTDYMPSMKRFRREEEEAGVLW

Beta Lactamase [11] = target: T3, Beta Lactamase; test: beta-lactamase reporter inhibitor potency, dose response, artefact control for TLR9-MyD88 binding inhibitor project, BLA reporter cells, FRET fluorescence (AID 588341); format: cell-based;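 further: cell based assay in CHO-K1 cells stably expressing beta-lactamase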
CHO = test: cytotoxicity in TLR9-MyD88 CHO cells, dose response, cytotoxicity control for TLR9-MyD88 binding inhibitor project, cell-based, luminescence (AID 588339); format: functional, hamster; details: Cricetulus griseus;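 further: CHO cells stably coexpressing TLR9 and MyD88 fusions from primary screen; compound exposure lasted 48 hours before viability readout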
[12] = THP-1 cell cytotoxicity, dose response, cytotoxicity control for non-replicating M. tuberculosis project (AID 489025); format: functional
[13] = C. albicans growth with fluconazole, confirmation, fluorescence, retest (AID 2467); format: functional, cell-based
[14] = Vero E6 cell cytotoxicity, dose response, cytotoxicity control for non-replicating M. tuberculosis project, secondary assay (AID 492998); format: functional, VeroE6; details: Vero C1008
cells = format: functional
[15] = HepG2 cell cytotoxicity, dose response, cytotoxicity control for non-replicating M. tuberculosis project (AID 489018); format: functional; details: Mycobacterium tuberculosis
[16] = NIH-3T3 fibroblast cytotoxicity, dose response, cytotoxicity control, cell-based, fluorescence, Alamar Blue, secondary assay (AID 2327); format: functional;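 further: NIH-3T3 mouse fibroblasts cultured with fluconazole at 8 µg/mL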

Albumin, sequence (P02769 whole entry): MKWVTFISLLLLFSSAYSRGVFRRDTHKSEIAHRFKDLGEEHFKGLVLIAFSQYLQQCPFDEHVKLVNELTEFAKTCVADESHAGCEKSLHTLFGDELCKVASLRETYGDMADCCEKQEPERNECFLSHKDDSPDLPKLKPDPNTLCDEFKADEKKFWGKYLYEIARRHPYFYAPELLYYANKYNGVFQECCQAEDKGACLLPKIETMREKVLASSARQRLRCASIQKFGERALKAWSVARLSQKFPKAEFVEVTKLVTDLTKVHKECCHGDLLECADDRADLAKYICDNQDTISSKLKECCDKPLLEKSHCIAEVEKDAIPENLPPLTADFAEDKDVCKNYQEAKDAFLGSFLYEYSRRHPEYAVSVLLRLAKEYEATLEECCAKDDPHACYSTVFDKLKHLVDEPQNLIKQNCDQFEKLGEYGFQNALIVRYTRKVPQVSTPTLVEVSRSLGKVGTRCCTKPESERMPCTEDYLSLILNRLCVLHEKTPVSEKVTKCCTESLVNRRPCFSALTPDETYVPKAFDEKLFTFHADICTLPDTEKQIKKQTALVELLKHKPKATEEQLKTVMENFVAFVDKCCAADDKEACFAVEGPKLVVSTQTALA

C/C(=N\NC(=O)c1nnn(-c2nonc2N)c1CN(C)c1ccccc1)c1ccccc1O
active: AC50 (INS1) 2.15 µM | EC50 [1] 5.57 µM | EC50 (Streptococcus) 5.74 µM | EC50 [2] 0.403 µM | EC50 [3] 5.37 µM
> 150 µM (not active): EC50 (Streptokinase A)
inactive: IC50 (Albumin) > 94.1 µM

Cc1cc2cc3c(NC(=O)c4ccco4)nn(C)c3nc2cc1C
active: AC50 [4] 147 µM

O=C1C(=O)N(Cc2cccc(Cl)c2)c2ccccc21
active: AC50 [4] 124 µM

CC1=C(O)C(=O)C=C2C1=CC=C1C2(C)CCC2(C)C3CC(C)(C(=O)O)CCC3(C)CCC12C (centres undefined)
active: AC50 (Paired box protein Pax-8) 2.41 µM | AC50 [5] 26.1 µM | IC50 (Protein Tat) > 100 µM | IC50 [6] 0.205 µM | AC50 [7] 1.41 µM | CC50 (Vero) 1.43 µM | CC50 [8] 1.01 µM | IC50 (Genome polyprotein) 19.7 µM | IC50 (CHO) 0.619 µM
inactive: IC50 (Beta-galactosidase) > 66.6 µM | IC50 [9] > 80 µM | IC50 (Beta Lactamase [10]) 38.1 µM | IC50 (Beta Lactamase [11]) 21.4 µM

COc1ccc(C(=O)NNC(=S)NC(=O)c2cccc([N+](=O)[O-])c2)cc1
inactive: IC50 (Albumin) > 94.1 µM | EC50 [16] > 160 µM
active: CC50 [12] 19.3 µM | EC50 [13] 2.63 µM | CC50 [14] 17.9 µM | IC50 (cells) 18.9 µM | CC50 [15] > 20 µM
